Data as given in PMC7614683, “A small molecule PI3Kα activator for cardioprotection and neuroregeneration” (Nature, 2023).
Like-named read-outs stand apart in the source and are kept apart here.

How the values were obtained:
Assay in all cases: SelectScreen Z-LYTE kinase activity assay (SI Table 6)
Assay type in all cases: biochemical
[1] = molecular target: protein kinases of the Z-LYTE panel (Homo sapiens, UniProt P00533, L858R/T790M)
Summary of the method: (§1)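 A single compound concentration of 1 μM was profiled in the vendor's Adapta, Lantha and Z-LYTE kinase assays. In gel-based follow-ups with 200 μM compound, phosphorylation was resolved on Phos-tag SDS-PAGE and quantified by Coomassie. The ATM run used 1 mM ATP with GST-p53 for 30 min, and the mTORC1 run used 250 μM ATP with 4E-BP1 for 3 h.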

[2] = molecular target: protein kinases of the Z-LYTE panel (Homo sapiens, UniProt P49760)
protein kinases of the Z-LYTE panel (Homo sapiens, UniProt P49760), sequence (P49760 whole entry): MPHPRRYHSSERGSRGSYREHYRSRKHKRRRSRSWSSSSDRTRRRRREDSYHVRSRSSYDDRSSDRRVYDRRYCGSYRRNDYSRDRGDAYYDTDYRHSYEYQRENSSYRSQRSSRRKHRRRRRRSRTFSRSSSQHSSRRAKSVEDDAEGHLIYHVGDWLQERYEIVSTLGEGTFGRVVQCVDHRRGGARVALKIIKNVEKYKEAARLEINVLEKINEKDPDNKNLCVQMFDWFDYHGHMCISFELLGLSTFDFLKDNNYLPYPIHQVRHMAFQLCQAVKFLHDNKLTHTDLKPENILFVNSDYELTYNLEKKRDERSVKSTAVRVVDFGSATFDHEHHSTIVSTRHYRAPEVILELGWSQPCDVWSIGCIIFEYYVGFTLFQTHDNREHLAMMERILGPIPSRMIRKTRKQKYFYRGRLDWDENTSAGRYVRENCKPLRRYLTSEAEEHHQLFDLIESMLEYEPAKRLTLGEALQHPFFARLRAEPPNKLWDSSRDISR
Summary of the method: as §1

[3] = molecular target: protein kinases of the Z-LYTE panel (Homo sapiens, UniProt P23458)
protein kinases of the Z-LYTE panel (Homo sapiens, UniProt P23458), sequence (P23458 whole entry): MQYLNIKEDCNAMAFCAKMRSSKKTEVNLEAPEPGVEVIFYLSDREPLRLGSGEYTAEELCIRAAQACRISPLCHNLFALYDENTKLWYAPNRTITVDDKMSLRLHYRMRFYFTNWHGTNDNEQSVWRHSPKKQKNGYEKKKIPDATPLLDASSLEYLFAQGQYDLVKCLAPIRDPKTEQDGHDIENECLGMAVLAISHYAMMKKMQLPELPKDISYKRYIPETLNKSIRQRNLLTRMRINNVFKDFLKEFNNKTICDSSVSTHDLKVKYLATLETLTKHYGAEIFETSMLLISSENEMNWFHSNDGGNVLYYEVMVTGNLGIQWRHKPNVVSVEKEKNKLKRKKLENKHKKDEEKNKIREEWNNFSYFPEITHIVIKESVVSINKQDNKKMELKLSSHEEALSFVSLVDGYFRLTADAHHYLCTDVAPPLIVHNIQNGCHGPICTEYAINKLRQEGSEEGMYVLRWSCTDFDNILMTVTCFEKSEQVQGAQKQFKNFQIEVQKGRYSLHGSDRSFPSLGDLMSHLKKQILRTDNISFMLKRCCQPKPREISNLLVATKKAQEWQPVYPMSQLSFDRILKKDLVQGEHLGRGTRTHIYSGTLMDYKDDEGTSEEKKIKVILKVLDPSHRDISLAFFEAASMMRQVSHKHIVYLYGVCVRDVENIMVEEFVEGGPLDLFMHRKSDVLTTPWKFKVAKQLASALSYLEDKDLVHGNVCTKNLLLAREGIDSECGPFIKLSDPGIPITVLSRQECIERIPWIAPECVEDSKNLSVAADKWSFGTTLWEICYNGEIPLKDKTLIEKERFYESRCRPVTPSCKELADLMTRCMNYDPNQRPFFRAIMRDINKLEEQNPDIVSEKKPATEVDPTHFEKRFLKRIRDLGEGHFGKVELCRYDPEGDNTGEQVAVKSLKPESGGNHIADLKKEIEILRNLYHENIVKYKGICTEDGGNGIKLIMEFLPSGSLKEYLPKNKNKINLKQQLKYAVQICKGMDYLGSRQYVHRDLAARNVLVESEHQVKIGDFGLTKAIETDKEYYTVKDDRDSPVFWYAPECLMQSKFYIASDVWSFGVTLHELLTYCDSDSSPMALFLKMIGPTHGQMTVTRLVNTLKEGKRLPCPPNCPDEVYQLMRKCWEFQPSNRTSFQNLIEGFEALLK
Summary of the method: as §1

[4] = molecular target: T1, protein kinases of the Z-LYTE panel (Homo sapiens, UniProt Q02156)
T1 sequence (Q02156 1-737): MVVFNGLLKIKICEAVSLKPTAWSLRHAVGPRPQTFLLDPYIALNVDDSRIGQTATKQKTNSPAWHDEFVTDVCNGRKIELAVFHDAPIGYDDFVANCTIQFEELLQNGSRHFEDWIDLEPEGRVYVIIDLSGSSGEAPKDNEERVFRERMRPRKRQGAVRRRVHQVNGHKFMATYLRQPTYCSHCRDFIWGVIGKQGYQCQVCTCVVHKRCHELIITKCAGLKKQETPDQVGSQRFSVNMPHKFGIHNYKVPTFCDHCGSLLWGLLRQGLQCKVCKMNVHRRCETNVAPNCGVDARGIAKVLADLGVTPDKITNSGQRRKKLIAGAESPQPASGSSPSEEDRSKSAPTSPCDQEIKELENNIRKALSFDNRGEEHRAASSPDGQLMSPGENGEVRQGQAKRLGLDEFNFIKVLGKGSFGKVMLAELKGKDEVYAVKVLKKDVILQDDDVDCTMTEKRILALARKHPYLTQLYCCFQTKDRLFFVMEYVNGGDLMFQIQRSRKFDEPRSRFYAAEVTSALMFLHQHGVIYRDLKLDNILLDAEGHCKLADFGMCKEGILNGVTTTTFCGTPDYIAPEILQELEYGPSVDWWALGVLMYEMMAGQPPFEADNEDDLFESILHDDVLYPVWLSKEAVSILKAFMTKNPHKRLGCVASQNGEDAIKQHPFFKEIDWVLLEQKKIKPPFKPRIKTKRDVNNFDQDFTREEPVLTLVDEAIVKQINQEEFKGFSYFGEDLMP
Summary of the method: as §1

[5] = molecular target: protein kinases of the Z-LYTE panel (Homo sapiens, UniProt P07949)
protein kinases of the Z-LYTE panel (Homo sapiens, UniProt P07949), sequence (P07949 29-1114): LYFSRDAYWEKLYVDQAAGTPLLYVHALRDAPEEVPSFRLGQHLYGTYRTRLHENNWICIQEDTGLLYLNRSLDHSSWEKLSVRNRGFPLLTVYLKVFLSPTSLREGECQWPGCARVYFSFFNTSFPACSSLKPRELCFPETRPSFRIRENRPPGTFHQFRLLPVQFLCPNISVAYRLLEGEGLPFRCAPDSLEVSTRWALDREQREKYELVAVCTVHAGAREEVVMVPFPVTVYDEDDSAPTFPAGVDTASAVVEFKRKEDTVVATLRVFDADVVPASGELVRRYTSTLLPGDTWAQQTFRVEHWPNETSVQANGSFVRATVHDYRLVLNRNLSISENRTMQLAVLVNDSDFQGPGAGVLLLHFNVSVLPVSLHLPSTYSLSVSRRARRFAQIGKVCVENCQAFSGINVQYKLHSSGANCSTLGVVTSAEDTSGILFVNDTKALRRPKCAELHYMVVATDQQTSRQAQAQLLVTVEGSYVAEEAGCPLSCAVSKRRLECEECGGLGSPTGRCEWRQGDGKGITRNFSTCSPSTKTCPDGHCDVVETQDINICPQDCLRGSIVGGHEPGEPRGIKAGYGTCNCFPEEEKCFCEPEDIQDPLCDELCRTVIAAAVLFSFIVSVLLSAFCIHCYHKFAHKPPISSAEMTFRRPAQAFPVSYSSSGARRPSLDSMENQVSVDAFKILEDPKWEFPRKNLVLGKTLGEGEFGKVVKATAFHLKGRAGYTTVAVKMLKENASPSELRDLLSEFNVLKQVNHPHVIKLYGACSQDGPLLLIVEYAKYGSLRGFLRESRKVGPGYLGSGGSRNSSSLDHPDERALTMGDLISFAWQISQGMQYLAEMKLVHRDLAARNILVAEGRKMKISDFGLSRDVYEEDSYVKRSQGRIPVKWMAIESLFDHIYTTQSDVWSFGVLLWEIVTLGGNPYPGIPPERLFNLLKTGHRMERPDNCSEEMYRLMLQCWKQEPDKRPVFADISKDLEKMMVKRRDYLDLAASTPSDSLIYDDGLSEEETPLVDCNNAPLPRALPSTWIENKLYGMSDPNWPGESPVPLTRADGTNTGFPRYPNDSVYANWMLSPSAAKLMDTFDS
Summary of the method: as §1

[6] = molecular target: protein kinases of the Z-LYTE panel (Homo sapiens, UniProt Q9H792)
protein kinases of the Z-LYTE panel (Homo sapiens, UniProt Q9H792), sequence (Q9H792 whole entry): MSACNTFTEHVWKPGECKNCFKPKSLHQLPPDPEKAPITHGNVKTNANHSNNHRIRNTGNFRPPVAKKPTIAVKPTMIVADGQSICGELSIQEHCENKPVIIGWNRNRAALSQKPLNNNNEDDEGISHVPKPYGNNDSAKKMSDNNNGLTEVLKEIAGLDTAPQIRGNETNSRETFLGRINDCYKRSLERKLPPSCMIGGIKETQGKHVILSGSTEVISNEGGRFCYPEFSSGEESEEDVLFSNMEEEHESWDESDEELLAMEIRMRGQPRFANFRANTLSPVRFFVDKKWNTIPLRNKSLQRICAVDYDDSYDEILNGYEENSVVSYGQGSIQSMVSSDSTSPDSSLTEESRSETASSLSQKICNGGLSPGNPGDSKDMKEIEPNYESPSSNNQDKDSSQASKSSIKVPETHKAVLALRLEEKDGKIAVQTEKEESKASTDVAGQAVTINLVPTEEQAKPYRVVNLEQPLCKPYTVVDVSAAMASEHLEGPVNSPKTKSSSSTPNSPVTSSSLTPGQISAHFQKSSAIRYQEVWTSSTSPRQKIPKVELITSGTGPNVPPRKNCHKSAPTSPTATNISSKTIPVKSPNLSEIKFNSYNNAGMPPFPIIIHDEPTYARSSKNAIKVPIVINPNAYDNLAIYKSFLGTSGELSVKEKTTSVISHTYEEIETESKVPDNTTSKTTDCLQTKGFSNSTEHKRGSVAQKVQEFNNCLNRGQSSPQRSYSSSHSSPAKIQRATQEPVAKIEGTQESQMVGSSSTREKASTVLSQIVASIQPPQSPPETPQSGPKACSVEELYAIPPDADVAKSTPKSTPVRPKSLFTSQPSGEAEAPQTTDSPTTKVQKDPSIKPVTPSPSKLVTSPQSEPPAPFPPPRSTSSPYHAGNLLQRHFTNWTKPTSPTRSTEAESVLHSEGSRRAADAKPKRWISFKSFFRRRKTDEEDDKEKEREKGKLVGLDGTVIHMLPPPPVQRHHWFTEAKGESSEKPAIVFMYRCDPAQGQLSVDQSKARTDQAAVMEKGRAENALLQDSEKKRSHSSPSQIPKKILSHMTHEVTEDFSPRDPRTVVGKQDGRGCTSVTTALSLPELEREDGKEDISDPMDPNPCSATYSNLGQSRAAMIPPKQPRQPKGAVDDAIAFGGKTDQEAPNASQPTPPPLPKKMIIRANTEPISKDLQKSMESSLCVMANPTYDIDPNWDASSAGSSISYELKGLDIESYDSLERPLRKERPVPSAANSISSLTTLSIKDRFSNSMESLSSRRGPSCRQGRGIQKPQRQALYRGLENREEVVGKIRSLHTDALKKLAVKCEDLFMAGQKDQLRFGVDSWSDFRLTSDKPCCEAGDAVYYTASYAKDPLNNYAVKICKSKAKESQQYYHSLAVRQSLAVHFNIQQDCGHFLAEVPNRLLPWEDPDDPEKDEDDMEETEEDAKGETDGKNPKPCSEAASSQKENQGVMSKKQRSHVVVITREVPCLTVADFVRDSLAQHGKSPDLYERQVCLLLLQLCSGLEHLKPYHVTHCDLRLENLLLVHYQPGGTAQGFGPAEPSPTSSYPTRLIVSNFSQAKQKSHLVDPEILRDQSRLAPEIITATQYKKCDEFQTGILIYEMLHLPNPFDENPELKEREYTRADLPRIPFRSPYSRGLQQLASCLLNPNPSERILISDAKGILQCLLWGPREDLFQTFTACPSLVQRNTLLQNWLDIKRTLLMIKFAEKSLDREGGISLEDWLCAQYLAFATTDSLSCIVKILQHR
Summary of the method: as §1

[7] = molecular target: protein kinases of the Z-LYTE panel (Homo sapiens, UniProt P23443)
protein kinases of the Z-LYTE panel (Homo sapiens, UniProt P23443), sequence (P23443 whole entry): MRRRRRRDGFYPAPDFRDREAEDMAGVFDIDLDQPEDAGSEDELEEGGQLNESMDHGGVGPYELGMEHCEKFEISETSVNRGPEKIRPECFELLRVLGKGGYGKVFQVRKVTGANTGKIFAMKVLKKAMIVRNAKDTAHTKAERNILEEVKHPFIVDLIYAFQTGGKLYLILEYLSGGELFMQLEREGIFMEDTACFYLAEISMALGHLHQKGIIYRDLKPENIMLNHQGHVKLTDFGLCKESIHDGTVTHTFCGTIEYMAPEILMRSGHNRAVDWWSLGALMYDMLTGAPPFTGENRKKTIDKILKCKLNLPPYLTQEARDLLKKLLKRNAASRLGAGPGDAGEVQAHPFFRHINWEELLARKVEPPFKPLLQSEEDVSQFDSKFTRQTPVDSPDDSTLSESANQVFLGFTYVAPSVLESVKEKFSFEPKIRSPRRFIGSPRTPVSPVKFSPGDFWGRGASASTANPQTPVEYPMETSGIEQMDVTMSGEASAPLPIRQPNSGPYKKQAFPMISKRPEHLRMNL
Summary of the method: as §1

[8] = molecular target: protein kinases of the Z-LYTE panel (Homo sapiens, UniProt Q06187)
Summary of the method: as §1

CCN1CCN(c2ccc(Nc3cc(Nc4cccc5c4N(C(C)=O)CC5)ccn3)cc2)CC1 [Compound 1938]
inhibition at 1 µM ([1]; read-out: % Inhibition Point 1): 12% | inhibition at 1 µM ([1]; read-out: % Inhibition Point 2): 12% | inhibition at 1 µM ([1]; read-out: % Inhibition mean): 12% | inhibition at 1 µM ([2]; read-out: % Inhibition Point 1): 2.33% | inhibition at 1 µM ([2]; read-out: % Inhibition Point 2): 1.66% | inhibition at 1 µM ([2]; read-out: % Inhibition mean): 2% | inhibition at 1 µM ([3]; read-out: % Inhibition Point 1): -2% | inhibition at 1 µM ([3]; read-out: % Inhibition Point 2): -2% | inhibition at 1 µM ([3]; read-out: % Inhibition mean): -2% | inhibition at 1 µM ([4]; read-out: % Inhibition Point 1): 1% | inhibition at 1 µM ([4]; read-out: % Inhibition Point 2): 2% | inhibition at 1 µM ([4]; read-out: % Inhibition mean): 1.57% | inhibition at 1 µM ([5]; read-out: % Inhibition Point 1): 15% | inhibition at 1 µM ([5]; read-out: % Inhibition Point 2): 15% | inhibition at 1 µM ([5]; read-out: % Inhibition mean): 15% | inhibition at 1 µM ([6]; read-out: % Inhibition Point 1): 25% | inhibition at 1 µM ([6]; read-out: % Inhibition Point 2): 18% | inhibition at 1 µM ([6]; read-out: % Inhibition mean): 21% | inhibition at 1 µM ([7]; read-out: % Inhibition Point 1): 2.67% | inhibition at 1 µM ([7]; read-out: % Inhibition Point 2): -0.609% | inhibition at 1 µM ([7]; read-out: % Inhibition mean): 1% | inhibition at 1 µM ([8]; read-out: % Inhibition Point 1): 9% | inhibition at 1 µM ([8]; read-out: % Inhibition Point 2): 8% | inhibition at 1 µM ([8]; read-out: % Inhibition mean): 9%
